According to article PMC4623604, “Discovery of Small Molecules that Inhibit the Disordered Protein, p27^Kip1” (Scientific Reports, 2015):

Target: T1, p27-KID (Homo sapiens, UniProt P46527)
T1 construct: 6xHis (N, cleaved yes); made in house; host or cells: E. coli (pET28a)
Assay: NMR fragment screening and 2D 1H-15N HSQC chemical shift perturbation mapping
Type: binding
Design: key to Binding Group (site of chemical shift perturbations in p27-KID): Molecules in Group 1 bound to a localized region, F87YY89; molecules in Group 2 bound to this region as well as two others containing two W residues (W60 and W76)
Details: 2D 1H-15N HSQC, 100 μM 15N-p27-KID
Text: We used one-dimensional (1D) ^1H WaterLOGSY[35] and STD[36] […] Fragment molecules were selected from either a commercial library (1,100 compounds from the Ro3 collection, Maybridge/Thermo Fisher Scientific) or an in-house library of 1,222 compounds based on the “Rule of Three”[40] and other criteria (see Methods). […] Binding sites for these compounds were identified by titration into ^15N-p27-KID and analysis of two-dimensional (2D) ^1H-^15N HSQC spectra. […] We termed these molecules Groups 1 and 2, respectively (Fig. 1b,c); representative ^1H CSP histograms are shown in Fig. 1d,e, and ^15N CSPs are presented in Suppl. Fig. 2. Data for all other small molecules are shown in Suppl. Fig. 3.
Screening and validation NMR experiments were performed at 298 K (25 °C) using either a Varian Inova 600 MHz spectrometer equipped with a triple resonance (HCN) room temperature gradient probe or a Bruker Avance 600 MHz spectrometer equipped with TCI cryogenic gradient probe and a SampleJet sample changer. Fragment molecules were initially analyzed as pools of five molecules dissolved at 10 mM each in DMSO-D6. […] For initial fragment screening experiments, one-dimensional (1D) ^1H- and WaterLOGSY[35] NMR spectra were recorded for compound pools without and with protein. […] DMSO-D6 was added to maintain a constant concentration (2% vol/vol). […] Tryptophan and tyrosine, respectively, were titrated into ^15N-p27-KID (100 μM) up to 3 mM. Three-dimensional (3D) backbone triple-resonance experiments to establish resonance assignments for the p27 constructs were performed using the Bruker Avance 600 MHz spectrometer. […] Fig. 12b,c and d,e, respectively. 2D ^1H-^15N TROSY-HSQC NMR experiments with ^2H/^13C/^15N-p27-D2/Cdk2/cyclin A and SJ403 have been recorded at 308 K (35 °C). 2D ^1H-^15N HSQC experiments of representative fragment hits (1 mM of SJ319843, group 1 and SJ403, group 2, respectively) with ^15N-p21-KID (20 μM) were recorded at 298 K using a Bruker Avance 600 MHz spectrometer. NMR spectra were processed using Bruker Topspin software and analyzed using computer-aided resonance assignment (CARA) software.
Chemical shift perturbations are generally quantified as combined ^1H and ^15N chemical shift values. […] Thus, the use of a combined chemical shift values would mask the effects of compound binding. […] Thus, the assessment of statistical significance was based upon whether a particular CSP value was larger than, i) the experimental spectral resolution in the given dimension (^1H or ^15N) and ii) the quantity, Δδave + 2σ, for that dimension.

T1 sequence (P46527 22-105): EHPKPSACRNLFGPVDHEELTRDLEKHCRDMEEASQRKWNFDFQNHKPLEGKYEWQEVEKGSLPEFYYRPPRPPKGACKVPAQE

`CCn1c(C)c(C)n2c3c(=O)n(C)c(=O)n(C)c3nc12` [SJ403] was tested, and the “Binding Group (site of chemical shift perturbations in p27-KID)” value was “Group 2”.
